Results reported in PMC12081876, “Identification of PTGR2 inhibitors as a new therapeutic strategy for diabetes and obesity” (EMBO Molecular Medicine, 2025).
Values joined by “and” are separate entries in the source; they are usually repeats but may differ in a detail not shown here. Equal entries are not always repeated.

Key:
[1] = system: HFHSD-fed obese C57BL6/J mice; assay: Body weight / diet-induced obesity in HFHSD-fed mice; format: in vivo, mouse; conditions: 40 mg/kg/day ip; for Body weight, individual mice / Body weight, Average: in g (unit assumed)
[2] = system: HFHSD-fed obese C57BL6/J mice; assay: Insulin tolerance test (ITT); format: in vivo, mouse; parameters: Figure 2I Average (glucose, ITT) / ITT / ITT glucose, Average / Blood glucose during insulin tolerance test (Figure 5M), Average: unit not given here; conditions: for ITT: individual mice
Protocol: (§1) Glucose tolerance was evaluated by the oral (OGTT) and intraperitoneal glucose tolerance test (ipGTT) after a 6-h fast. For the OGTT, glucose water (1 mg/g) was given by oral gavage, and tail blood glucose was measured with a glucometer (ACCU-CHEK Performa, Roche) at 0, 15, 30, 45, 60, 90, and 120 min. For the ipGTT, tail blood glucose was measured at 0, 15, 30, 45, 60, 90, and 120 min after intraperitoneal injection of glucose water (1 mg/g). For the insulin tolerance test (ITT), mice were fasted for 4 h and then injected intraperitoneally with 1 U/kg of insulin (Humulin R, Eli Lilly). Tail blood glucose was measured at 0, 15, 30, 45, 60, 90, 120, and 180 min.

[3] = system: differentiated 3T3-L1 adipocytes; assay: Insulin-stimulated glucose uptake assay by (3H)2-deoxyglucose; format: cell-based, mouse; parameters: insulin-stimulated glucose uptake, Fig 1J replicates / Figure 5E raw value, insulin-stimulated glucose uptake (replicates): unit not given here
Protocol: The cell lines, which were tested for mycoplasma contamination and authenticated, were purchased from the Bioresource Collection and Research Center, Taiwan. All cells were cultured at 37 °C, 5% CO2 in a humidified incubator. HEK293T cells were maintained in DMEM (cat. no. SH30003.02, HyClone) supplemented with 10% fetal bovine serum (FBS) (cat. no. 04-001-1A, Biological Industries) and 1% antibiotic/antimycotic solution (cat. no. SV30079.01, HyClone). 3T3-L1 preadipocytes were maintained at ~70% confluence in DMEM with 10% calf serum (cat. no. 16170078, Gibco) and 1% antibiotic/antimycotic solution. For adipocyte differentiation, confluent 3T3-L1 cells (defined as day 0) were exposed to an induction medium containing 10% FBS, 1 μM dexamethasone (cat. no. D4902, Sigma-Aldrich), and 1 μg/ml insulin (Humulin R, Eli Lilly) in DMEM with or without 0.5 mM isobutyl-methylxanthine (cat. no. sc-201188A, Santa Cruz Biotechnology) as indicated. After two days, the medium was replaced with DMEM containing 10% FBS and 1 μg/ml insulin and was replenished every two days until assay.
Differentiated 3T3-L1 cells were starved with serum-free DMEM containing 0.2% BSA (cat. no. A9647, Sigma-Aldrich). Cells were rinsed twice with KRH buffer (137 mM NaCl, 4.7 mM KCl, 1.85 mM CaCl2, 1.3 mM MgSO4, 50 mM HEPES and 0.1% BSA, pH 7.4), and treated with or without […] insulin in the presence of 20 μM cytochalasin B (cat. no. 11328, Cayman Chemical), a GLUT inhibitor for measuring non-specific glucose uptake, for 30 min. Cells were then incubated with 0.5 μCi [^3H]-2-deoxy-D-Glucose (cat. no. NET328A001MC, PerkinElmer) and 0.1 μM 2-deoxy-D-Glucose (2DG) (cat. no. 14325, Cayman Chemical) for 5 min. Uptake of 2DG was terminated by rapidly removing medium and washing with ice-cold PBS three times. Cells were lysed with 0.1% SDS, and the radioactivity was measured using a liquid scintillation counter. Insulin-mediated glucose uptake was calculated by subtracting insulin-treated glucose uptake with basal glucose uptake.

[4] = system: HFHSD-fed obese C57BL6/J mice; assay: Intraperitoneal glucose tolerance test (ipGTT); format: in vivo, mouse; parameters: Figure 2H Average (glucose, ipGTT) / ipGTT / ipGTT glucose, Average / Blood glucose during glucose tolerance test (Figure 5L), Average: unit not given here; conditions: for ipGTT: individual mice
Protocol: as §1

[5] = 40 mg/kg/day ip, 3 weeks, HFHSD-fed mice, vs vehicle

Compound: CCCCCC(=O)/C=C/[C@H]1[C@H](O)CC(=O)[C@@H]1C/C=C\CCCC(=O)O [15-keto-PGE2, 15-keto-prostaglandin E2]
- diet-induced obesity (body weight) ([1]; 3 weeks, HFHSD-fed mice, vs vehicle): protected against diet-induced obesity
- Body weight, individual mice ([1]; treatment day 1, 40 mg/kg/day): 31.70 and 29.90 and 31.10 and 26.25 and 27.55
- Body weight, Average ([1]; treatment day 1): 29.83
- Body weight, individual mice ([1]; treatment day 2, 40 mg/kg/day): 31.55 and 28.75 and 30.85 and 26.15 and 27.85
- Body weight, Average ([1]; treatment day 2): 29.61
- Body weight, Average ([1]; treatment day 3, 40 mg/kg/day): 29.4
- Body weight, individual mice ([1]; treatment day 3, 40 mg/kg/day): 31.60 and 29.00 and 30.75 and 25.90 and 26.35
- Body weight, individual mice ([1]; treatment day 4, 40 mg/kg/day): 32.50 and 27.95 and 30.90 and 25.75 and 26.90
- Body weight, Average ([1]; treatment day 4): 29.42
- Body weight, individual mice ([1]; treatment day 5, 40 mg/kg/day): 32.50 and 26.45 and 30.70 and 25.35 and 26.25
- Body weight, Average ([1]; treatment day 5): 29.42
- Body weight, individual mice ([1]; treatment day 6, 40 mg/kg/day): 32.60 and 26.45 and 30.00 and 25.75
- Body weight, Average ([1]; treatment day 6): 29.49
- Body weight, individual mice ([1]; treatment day 7, 40 mg/kg/day): 32.60 and 26.55 and 30.10 and 26.40
- Body weight, Average ([1]; treatment day 7): 29.61
- Body weight, individual mice ([1]; treatment day 8, 40 mg/kg/day): 31.90 and 27.35 and 30.10 and 25.05
- Body weight, Average ([1]; treatment day 8): 29.92
- Body weight, individual mice ([1]; treatment day 9, 40 mg/kg/day): 31.40 and 28.05 and 30.70 and 25.90
- Body weight, Average ([1]; treatment day 9): 29.95
- Body weight, individual mice ([1]; treatment day 10, 40 mg/kg/day): 30.70 and 28.45 and 30.20 and 26.55 and 27.35
- Body weight, Average ([1]; treatment day 10): 29.99
- Body weight, individual mice ([1]; treatment day 11, 40 mg/kg/day): 31.60 and 28.55 and 30.40 and 27.50 and 26.90
- Body weight, Average ([1]; treatment day 11): 30.05
- Body weight, Average ([1]; treatment day 12, 40 mg/kg/day): 30.2
- Body weight, individual mice ([1]; treatment day 12, 40 mg/kg/day): 31.60 and 29.05 and 30.95 and 27.45 and 27.10
- Body weight, individual mice ([1]; treatment day 13, 40 mg/kg/day): 31.75 and 30.2 and 31.6 and 28.55 and 28.05
- Body weight, Average ([1]; treatment day 13): 30.36
- Body weight, individual mice ([1]; treatment day 14, 40 mg/kg/day): 31.65 and 30.50 and 31.35 and 28.35 and 27.80
- Body weight, Average ([1]; treatment day 14): 30.49
- Body weight, individual mice ([1]; treatment day 15, 40 mg/kg/day): 31.70 and 29.55 and 30.65 and 27.45 and 27.00
- Body weight, Average ([1]; treatment day 15): 30.22
- Body weight, individual mice ([1]; treatment day 16, 40 mg/kg/day): 31.85 and 29.40 and 30.30 and 27.00 and 26.50
- Body weight, Average ([1]; treatment day 16): 30.12
- Body weight, individual mice ([1]; treatment day 17, 40 mg/kg/day): 32.75 and 29.85 and 31.95 and 27.85 and 26.80
- Body weight, Average ([1]; treatment day 17): 30.56
- Body weight, individual mice ([1]; treatment day 18, 40 mg/kg/day): 31.80 and 29.75 and 32.10 and 27.75
- Body weight, Average ([1]; treatment day 18): 30.63
- Body weight, individual mice ([1]; treatment day 19, 40 mg/kg/day): 33.15 and 31.50 and 32.00 and 28.35 and 27.70
- Body weight, Average ([1]; treatment day 19): 30.65
- Body weight, individual mice ([1]; treatment day 20, 40 mg/kg/day): 33.10 and 30.85 and 31.55 and 27.75 and 27.15
- Body weight, Average ([1]; treatment day 20): 30.69
- Body weight, individual mice ([1]; treatment day 21, 40 mg/kg/day): 32.55 and 30.9 and 31.6 and 28 and 28.15
- Body weight, Average ([1]; treatment day 21): 30.73
- insulin sensitivity (ITT) [2, 5]: markedly improved
- ITT ([2]; 0 min): 113 and 114 and 91 and 147 and 149 and 115 and 92 and 118 and 94 and 110 and 98 and 125
- ITT ([2]; 15 min): 59 and 78 and 70 and 67 and 83 and 90 and 111 and 75 and 45 and 63 and 82 and 49 and 92
- ITT ([2]; 30 min): 56 and 79 and 54 and 62 and 52 and 71 and 66 and 57 and 43 and 75 and 46
- ITT ([2]; 45 min): 34 and 60 and 37 and 51 and 42 and 62 and 56 and 47 and 44 and 30 and 54 and 50 and 29
- ITT ([2]; 60 min): 23 and 57 and 21 and 58 and 46 and 66 and 49 and 34 and 31 and 26 and 51 and 53 and 50 and 39 and 29
- ITT ([2]; 90 min): 22 and 65 and 25 and 41 and 63 and 57 and 31 and 37 and 56 and 38 and 49 and 24 and 27
- ITT ([2]; 120 min): 46 and 53 and 25 and 39 and 54 and 62 and 47 and 31 and 70 and 51 and 36
- ITT ([2]; 180 min): 98 and 66 and 25 and 65 and 84 and 62 and 77 and 73 and 54 and 78 and 69 and 82
- Figure 2I Average (glucose, ITT) ([2]; time 0): 112.333
- Figure 2I Average (glucose, ITT) ([2]; time 15): 74.4667
- Figure 2I Average (glucose, ITT) ([2]; time 30): 60.8
- Figure 2I Average (glucose, ITT) ([2]; time 45): 46.2667
- Figure 2I Average (glucose, ITT) ([2]; time 60): 42.2
- Figure 2I Average (glucose, ITT) ([2]; time 90): 41.1333
- Figure 2I Average (glucose, ITT) ([2]; time 120): 45.6667
- Figure 2I Average (glucose, ITT) ([2]; time 180): 67.6667
- insulin-stimulated glucose uptake, Fig 1J replicates ([3]; 15kPGE2 1): 1.328 and 1.441 and 0.8491 and 1.4653
- insulin-stimulated glucose uptake, Fig 1J replicates ([3]; 15kPGE2 5): 3.521 and 4.331 and 2.858 and 2.553
- insulin-stimulated glucose uptake, Fig 1J replicates ([3]; 15kPGE2 10): 4.083 and 4.476 and 3.119 and 3.373
- insulin-stimulated glucose uptake ([3]; differentiated 3T3-L1 adipocytes): increased insulin-stimulated glucose uptake in differentiated 3T3-L1 adipocytes dose-dependently
- glucose tolerance (ipGTT) [4, 5]: markedly improved
- ipGTT ([4]; 0 min): 105 and 98 and 102 and 88 and 151 and 155 and 75 and 78 and 93 and 125 and 111
- ipGTT ([4]; 15 min): 222 and 226 and 190 and 213 and 239 and 234 and 324 and 231 and 152 and 188 and 183 and 251 and 245 and 276
- ipGTT ([4]; 30 min): 262 and 264 and 155 and 201 and 221 and 211 and 273 and 247 and 125 and 124 and 200 and 186 and 235 and 231 and 280
- ipGTT ([4]; 45 min): 229 and 251 and 162 and 188 and 184 and 199 and 252 and 215 and 109 and 112 and 132 and 155 and 211 and 175 and 213
- ipGTT ([4]; 60 min): 262 and 225 and 130 and 171 and 177 and 179 and 196 and 206 and 110 and 120 and 89 and 133 and 182 and 155 and 205
- ipGTT ([4]; 90 min): 208 and 191 and 114 and 152 and 166 and 143 and 171 and 181 and 88 and 108 and 112 and 151 and 124
- ipGTT ([4]; 120 min): 166 and 121 and 99 and 122 and 118 and 90 and 69 and 80 and 108 and 131 and 100 and 135
- Figure 2H Average (glucose, ipGTT) ([4]; time 0): 108.467
- Figure 2H Average (glucose, ipGTT) ([4]; time 15): 223.8
- Figure 2H Average (glucose, ipGTT) ([4]; time 30): 214.333
- Figure 2H Average (glucose, ipGTT) ([4]; time 45): 185.8
- Figure 2H Average (glucose, ipGTT) ([4]; time 60): 169.333
- Figure 2H Average (glucose, ipGTT) ([4]; time 90): 144.2
- Figure 2H Average (glucose, ipGTT) ([4]; time 120): 109.267
